Measured values: PubChem BioAssay (NCI)
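Step 1: Grow cells in 96-well plates. Step 2: Expose to compound for 48 hours at 5 concentrations. Step 3: Interpolate endpoints linearly; if unreached, use highest concentration. Here, GI50 denotes the concentration required for 50% inhibition of growth. The concentration for full growth arrest is given as TGI.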

Experiments:
Assay in all cases: NCI-60 cell line screen, 48 h
COLO 205 colon = tested on: COLO 205 colon
HCC-2998 colon = tested on: HCC-2998 colon
IGROV1 ovarian = tested on: IGROV1 ovarian
MALME-3M melanoma = tested on: MALME-3M melanoma
NCI-H23 lung = tested on: NCI-H23 lung
NCI-H522 lung = tested on: NCI-H522 lung
SK-MEL-2 melanoma = tested on: SK-MEL-2 melanoma
SN12C renal = tested on: SN12C renal
SW-620 colon = tested on: SW-620 colon
UO-31 renal = tested on: UO-31 renal

SMILES | GI50 (COLO 205 colon) [µM] | TGI (COLO 205 colon) [µM] | GI50 (HCC-2998 colon) [µM] | TGI (HCC-2998 colon) [µM] | GI50 (IGROV1 ovarian) [µM] | TGI (IGROV1 ovarian) [µM] | GI50 (MALME-3M melanoma) [µM] | TGI (MALME-3M melanoma) [µM] | GI50 (NCI-H23 lung) [µM] | TGI (NCI-H23 lung) [µM] | GI50 (NCI-H522 lung) [µM] | TGI (NCI-H522 lung) [µM] | GI50 (SK-MEL-2 melanoma) [µM] | TGI (SK-MEL-2 melanoma) [µM] | GI50 (SN12C renal) [µM] | TGI (SN12C renal) [µM] | GI50 (SW-620 colon) [µM] | TGI (SW-620 colon) [µM] | GI50 (UO-31 renal) [µM] | TGI (UO-31 renal) [µM]
COc1cc(/C=C/C(=O)C(C(=O)/C=C/c2ccc(OC(=O)CCNc3nnc(C)s3)c(OC)c2)C(=O)CCNc2nnc(C)s2)ccc1OC(=O)CCNc1nnc(C)s1 | 2.57 | 6.94 | 1.77 | 3.2 | 1.98 | 4.47 | 2.72 | 6.51 | 3.19 | 18.4 | 2.49 | 7.79 | 2.85 | 12.5 | 2.49 | 10.2 | 1.64 | 3.33 | 1.62 | 3.67
NC(N)=N/N=C(/c1ccccc1)c1ccc(Cl)cc1 | 14.4 | > 100 | 16.3 | 47.5 | 10.6 | 82.5 | 53.3 | > 100 | 34 | > 100 | 12.5 | 71.1 | > 100 | > 100 | 27.4 | > 100 | 3.93 | > 100 | 17.2 | > 100
O=C1CSC(=S)N1Cc1cccnc1 | 5.59 | 21.1 | 19.8 | 36.9 | 4.4 | 19 | 6.71 | 25.6 | 15.1 | 48 | 2.22 | 5.83 | 4.21 | 16.5 | 14.5 | 29.2 | 4.13 | 16.8 | 4.61 | 17.6
Cc1ccc(/C=C/C(=O)c2ccc(N)cc2)c(C)c1 | 2.43 | 6.07 | 15.6 | 30.6 | 1.41 | 3.08 | 1.87 | 3.57 | 2.19 | 5.21 | 0.379 | 1.67 | 14 | 28.4 | 1.95 | 4.2 | 1.92 | 3.88 | 1.83 | 3.92
COc1cc2c3c(n(CCCNC(=O)OCC4c5ccccc5-c5ccccc54)c(=O)c2cc1OC)-c1cc2c(cc1C3=O)OCO2 | > 100 | > 100 | > 100 | > 100 | > 100 | > 100 | 93.3 | > 100 | > 64.1 | > 100 | 34.9 | > 100 | 45.5 | > 100 | > 100 | > 100 | > 100 | > 100 | > 100 | > 100
N#CCC12CC=CCC1=C(O)C(=O)c1ccc(O)cc12 (stereo not given) | – | > 100 | – | > 100 | – | > 100 | – | > 100 | – | > 100 | – | > 100 | – | > 100 | – | > 100 | – | > 100 | – | > 100
COc1ccc(/C(=N\O)c2cc(OC)c(OC)c(OC)c2)c(OC)c1N | 2.23 | 6.5 | 3.29 | > 100 | 6.83 | > 100 | 8.5 | > 100 | 6.45 | > 100 | 3.3 | > 100 | 7.48 | > 100 | 7.9 | > 100 | 3.97 | > 100 | 8.14 | > 100
CO/N=C(\COc1ccc2c(c1)oc(=O)c1cc(OC)ccc12)c1cccc(OC)c1 | > 100 | > 100 | > 100 | > 100 | > 100 | > 100 | > 100 | > 100 | > 100 | > 100 | > 100 | > 100 | > 100 | > 100 | > 100 | > 100 | > 100 | > 100 | > 100 | > 100
O=C1/C(=C/c2ccc(Cl)cc2)CN(Cc2cn(CCNc3ccnc4cc(Cl)ccc34)nn2)C/C1=C\c1ccc(Cl)cc1 | 0.354 | 1.07 | 0.246 | 0.563 | 0.276 | 0.732 | 1.53 | 3.14 | 0.761 | 2.31 | 0.52 | 1.19 | 1.88 | 3.4 | 1.08 | 3.38 | 0.275 | 0.83 | 0.242 | 0.698
CC1(C)N=C(N)N=C(N)N1c1ccc(OCC(=O)N2CCOCC2)c(Cl)c1 | 8.8 | > 100 | 9.78 | > 100 | 0.379 | 12.9 | 6.17 | > 100 | 1.5 | > 100 | 2.24 | > 100 | > 100 | > 100 | 6.9 | > 100 | 0.714 | > 100 | > 100 | > 100
COC(=O)c1c(C)cc2c(c1O)C1(O)C(=O)c3cc4c(c(O)c3C(=O)C1(OC)C(O)C2)C(=O)C=C(NC1OC(C)C(OC)C(O)C1OC)C4=O (stereo not given) | – | 0.186 | – | 0.28 | – | 0.0635 | – | 0.249 | – | 0.0368 | – | 0.257 | – | 0.149 | – | 0.243 | – | 0.164 | – | 0.427
Cc1[nH]n(-c2ccc(S(=O)(=O)O)cc2)c(=O)c1N=Nc1ccccc1 | – | > 100 | – | > 100 | – | > 100 | – | > 100 | – | > 100 | – | > 100 | – | > 100 | – | > 100 | – | > 100 | – | > 100
COc1cc(C(=O)N2CCN(c3ccccc3OC)CC2)c(N)cc1OCc1ccccc1 | 59.4 | > 100 | 40 | > 100 | 28.5 | > 100 | 22.3 | 55.6 | 48.4 | > 100 | 25.9 | 80.6 | 28.2 | 66.8 | 30.5 | > 100 | 41.1 | > 100 | 22.4 | > 100
O=C1Cc2ccccc2N1c1c(Cl)cccc1Cl | – | > 100 | – | > 100 | – | > 100 | – | > 100 | – | > 100 | – | > 100 | – | > 100 | – | > 100 | – | > 100 | – | > 100
Oc1ccc2ccccc2c1C(c1ccc(Cl)cc1)c1c(O)ccc2ccccc12 | – | 4.49 | – | 6.34 | – | 7.65 | – | 6.71 | – | 19.1 | – | 5.17 | – | 6.71 | – | 9.72 | – | 18.4 | – | 10.6
Cc1ccc(NSc2ccccc2[N+](=O)[O-])cc1 | 0.149 | 3.44 | 1.82 | 10.6 | 1.25 | 28.2 | 3.21 | 28.9 | 1.58 | 22.6 | 0.435 | 13.4 | 1.17 | 21.9 | 1.3 | 21.1 | 0.137 | 16.2 | 2.07 | 16
Cc1cc(Cl)ccc1NC(=O)CC1SC(N)=NC1=O (stereo not given) | – | > 100 | – | > 100 | – | > 100 | – | > 100 | – | > 100 | – | > 100 | – | > 100 | – | > 100 | – | > 100 | – | > 100
Cc1cc(O)ccc1O | 23.7 | 47.6 | 73.6 | > 100 | 16.6 | 31 | 15.8 | 31.1 | 39.4 | > 100 | 3.58 | 18.8 | > 100 | > 100 | 14.4 | 27.8 | 20.7 | 38.6 | 13.4 | 26.2
CC(C)(C)c1cn2cccc(C(=O)N3CCN(CC(=O)Nc4ccc(Cl)cc4C(=O)c4ccccc4Cl)CC3)c2n1 | 6.49 | 43.6 | 10.3 | 75.1 | 16.4 | 38.5 | 19.9 | 38.8 | 18.8 | > 100 | 12.7 | 52.3 | 5 | 33.6 | 10.6 | 35.4 | 7.81 | 29.1 | 22.4 | 74.7
COc1cc2c(cc1OCCCCCn1c(-c3ccco3)nc3ccccc31)N=C[C@@H]1CCCN1C2=O | < 0.01 | < 0.01 | < 0.01 | 0.0193 | < 0.01 | 13.2 | < 0.01 | < 0.01 | < 0.01 | < 0.01 | < 0.01 | – | < 0.0147 | 0.07 | < 0.01 | 11.3 | < 0.01 | 10.1 | – | –
C=CCC12CC(=O)C=C1CCC1(C2)OCCO1 (stereo not given) | – | > 100 | – | > 100 | – | > 100 | – | > 100 | – | – | – | > 100 | – | > 100 | – | > 100 | – | > 100 | – | > 100
CC1C=CC(C)C2(O)C(=O)NC(O)C12 (stereo not given) | – | > 100 | – | > 100 | – | > 100 | – | > 100 | – | – | – | > 100 | – | > 100 | – | > 100 | – | > 100 | – | > 100
